{"source": "paper PMC3492849", "about": "(The Febs Journal, 2012)"}
{"molecular_target": "PKD1L3/PKD2L1 (Mus musculus, UniProt A2A259+Q2EG98)", "sequence (A2A259 whole entry)": "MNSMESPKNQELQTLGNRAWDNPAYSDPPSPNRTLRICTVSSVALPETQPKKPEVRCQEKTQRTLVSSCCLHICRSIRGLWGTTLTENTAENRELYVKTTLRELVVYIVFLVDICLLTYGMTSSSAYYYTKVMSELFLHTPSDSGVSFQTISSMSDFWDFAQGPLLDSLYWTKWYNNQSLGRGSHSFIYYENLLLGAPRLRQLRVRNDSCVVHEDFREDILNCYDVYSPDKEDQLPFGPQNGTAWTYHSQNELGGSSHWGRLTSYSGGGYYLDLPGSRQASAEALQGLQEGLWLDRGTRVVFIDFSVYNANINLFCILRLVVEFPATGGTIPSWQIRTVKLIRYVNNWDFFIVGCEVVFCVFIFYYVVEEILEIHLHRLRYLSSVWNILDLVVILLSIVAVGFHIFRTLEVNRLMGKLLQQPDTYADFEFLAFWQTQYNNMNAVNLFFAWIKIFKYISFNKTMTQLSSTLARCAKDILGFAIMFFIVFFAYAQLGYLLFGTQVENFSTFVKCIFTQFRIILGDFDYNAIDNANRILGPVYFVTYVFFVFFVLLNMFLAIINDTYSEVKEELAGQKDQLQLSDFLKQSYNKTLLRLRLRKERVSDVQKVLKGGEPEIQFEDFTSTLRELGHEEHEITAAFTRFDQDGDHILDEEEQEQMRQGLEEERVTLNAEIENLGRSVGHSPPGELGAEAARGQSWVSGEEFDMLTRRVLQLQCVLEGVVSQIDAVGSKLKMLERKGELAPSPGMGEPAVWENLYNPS", "sequence (Q2EG98 21-2151)": "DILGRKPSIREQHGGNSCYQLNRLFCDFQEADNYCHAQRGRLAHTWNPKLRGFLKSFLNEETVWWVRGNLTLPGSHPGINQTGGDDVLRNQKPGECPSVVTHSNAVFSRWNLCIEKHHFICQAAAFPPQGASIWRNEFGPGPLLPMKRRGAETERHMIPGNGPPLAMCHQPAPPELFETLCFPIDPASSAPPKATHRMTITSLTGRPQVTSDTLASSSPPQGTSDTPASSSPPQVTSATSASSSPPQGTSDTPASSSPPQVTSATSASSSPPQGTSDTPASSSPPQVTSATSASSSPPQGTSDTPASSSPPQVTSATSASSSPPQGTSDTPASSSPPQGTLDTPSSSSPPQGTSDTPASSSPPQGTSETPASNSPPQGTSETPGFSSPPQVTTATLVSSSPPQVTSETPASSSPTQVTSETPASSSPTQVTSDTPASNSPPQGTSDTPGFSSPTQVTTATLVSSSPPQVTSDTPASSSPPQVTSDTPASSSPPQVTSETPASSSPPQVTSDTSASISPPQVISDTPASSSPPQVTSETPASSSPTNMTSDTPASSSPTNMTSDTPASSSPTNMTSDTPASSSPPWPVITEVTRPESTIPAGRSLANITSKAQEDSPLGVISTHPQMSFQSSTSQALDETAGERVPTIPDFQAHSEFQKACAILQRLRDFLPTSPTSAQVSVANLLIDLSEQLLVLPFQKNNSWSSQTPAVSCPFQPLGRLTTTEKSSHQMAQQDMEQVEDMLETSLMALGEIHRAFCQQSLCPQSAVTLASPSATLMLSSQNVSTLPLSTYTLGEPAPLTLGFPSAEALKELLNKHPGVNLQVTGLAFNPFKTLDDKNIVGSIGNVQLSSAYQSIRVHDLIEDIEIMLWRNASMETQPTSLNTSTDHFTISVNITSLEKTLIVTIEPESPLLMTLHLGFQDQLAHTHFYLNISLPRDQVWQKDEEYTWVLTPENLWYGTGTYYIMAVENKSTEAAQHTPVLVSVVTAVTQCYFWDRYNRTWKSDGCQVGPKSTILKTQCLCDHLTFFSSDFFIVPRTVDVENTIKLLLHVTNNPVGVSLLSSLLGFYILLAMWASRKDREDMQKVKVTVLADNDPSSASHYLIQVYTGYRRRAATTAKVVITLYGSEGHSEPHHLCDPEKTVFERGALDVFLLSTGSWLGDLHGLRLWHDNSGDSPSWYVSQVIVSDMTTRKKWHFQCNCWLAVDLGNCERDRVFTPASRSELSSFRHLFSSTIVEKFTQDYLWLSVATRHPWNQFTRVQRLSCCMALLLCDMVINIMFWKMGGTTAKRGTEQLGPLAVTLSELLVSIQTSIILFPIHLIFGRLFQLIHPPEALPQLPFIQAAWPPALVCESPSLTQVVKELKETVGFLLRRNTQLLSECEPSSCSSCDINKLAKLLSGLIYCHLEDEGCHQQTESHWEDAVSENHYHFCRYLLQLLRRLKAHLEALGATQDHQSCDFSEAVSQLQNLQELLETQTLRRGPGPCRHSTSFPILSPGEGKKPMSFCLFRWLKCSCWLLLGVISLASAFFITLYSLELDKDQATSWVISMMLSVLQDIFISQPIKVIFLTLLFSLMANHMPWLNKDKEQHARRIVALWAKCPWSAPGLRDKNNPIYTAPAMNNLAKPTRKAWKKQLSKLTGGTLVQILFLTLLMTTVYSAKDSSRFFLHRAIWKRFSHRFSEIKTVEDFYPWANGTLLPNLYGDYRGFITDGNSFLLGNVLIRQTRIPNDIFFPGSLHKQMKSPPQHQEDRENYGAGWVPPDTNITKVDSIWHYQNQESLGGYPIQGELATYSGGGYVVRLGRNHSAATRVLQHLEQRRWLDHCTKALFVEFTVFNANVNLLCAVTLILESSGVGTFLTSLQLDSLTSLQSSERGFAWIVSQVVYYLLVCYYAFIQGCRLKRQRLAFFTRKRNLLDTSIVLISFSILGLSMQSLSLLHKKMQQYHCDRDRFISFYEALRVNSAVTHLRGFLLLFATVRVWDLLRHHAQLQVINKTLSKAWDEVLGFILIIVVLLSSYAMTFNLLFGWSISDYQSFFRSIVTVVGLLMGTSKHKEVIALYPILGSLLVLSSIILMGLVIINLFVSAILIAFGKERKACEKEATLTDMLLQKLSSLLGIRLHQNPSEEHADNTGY", "assay": "Fura-2 Ca2+ imaging, neutralization method", "assay_type": "cell-based", "units": {"IC50": "µM"}}
{"compound": "COc1ccc(CCCOC(Cn2ccnc2)c2ccc(OC)cc2)cc1", "note": "(stereo not shown) [SKF96365]", "IC50": "48.1 ± 10.8"}
{"compound": "COc1cc(CNC(=O)CCCCCCC(C)C)ccc1O", "note": "[dihydrocapsaicin]", "IC50": "55 ± 14.2"}
{"compound": "CCCCC[C@H](O)CC(=O)CCc1ccc(O)c(OC)c1", "note": "[6-gingerol]", "IC50": "85.9 ± 34.7"}
{"compound": "COc1cc(CNC(=O)CCCC/C=C/C(C)C)ccc1O", "note": "[capsaicin]", "IC50": "32.5 ± 10.2"}
